Laboratory results from US5037852A, “Cinnamoylamide derivatives” (Ono Pharmaceutical Co., Ltd., priority 1987, dated 1991).
pIC50: −log10 of the molar value.

Target: 5α-reductase
Assay: Inhibitory activity on 5α-reductase in vitro (rat prostate enzyme, [4-C14]-testosterone conversion to dihydrotestosterone)
Format: biochemical
Settings: male rat prostate enzyme; [4-C14]-testosterone 1.5 n mol, NADPH; 60 mins at 37° C.; pH 7.4 buffer
Protocol: The test was carried out with reference to the method of J. Shimazaki et al [See Endocrinol, Japon., 18, 179 (1971).]
Male rat's prostate (4 g) was homogenized with its triple volume of 0.1M HEPES buffer (PH 7.4) including 0.25M cane sugar and was centrifuged at 3000 r.p.m. for 10 mins.
The precipitate was suspended into the buffer solution described above (10 ml), and the suspension was centrifuged at 3000 r.p.m for 5 mins. The resulting precipitated was suspended in the buffer solution (3 ml) described above and was used as a sauce of enzyme.
A reaction mixture (total volume 0.1 ml) of [4-C^14 ]-testosterone (1.5n mol, 1.5×10^5 cpm), NADPH (0.5 μmol), enzyme solution (0.03 ml) described above and several kinds of concentration of the compounds in the present invention was incubated for 60 mins at 37° C. Enzyme reaction was quenched by addition of a mixture (0.4 ml) of chloroform and methanol (1:2), and the mixture was centrifuged at 2000 r.p.m for 3 mins. The supernatant (50 μl) was spotted on silica gel thin layer plate. The spot on the plate was developed with a mixture of chloroform, methanol and acetic acid (99.2:0.6:0.2). Radioactivity of dihydrotestosteron generated on plate was measured by TLC scanner of radio-autography and inhibitory ratio was calculated.

| pIC50 | SMILES |
| --- | --- |
| 6.64 | C/C(=C\c1ccc(CCc2ccccc2)cc1)C(=O)Nc1ccccc1OCCCC(=O)O [1 (l), 4-[2-(4-phenethyl-α-methylcinnamoylamino)phenoxy]butanoic acid] |
| 6.43 | C/C(=C\C(=O)Nc1ccccc1OCCCC(=O)O)c1ccc(CC(C)(C)C)cc1 [1 (b)] |
| 6.62 | CCCCCc1cccc(/C=C(\C)C(=O)Nc2ccccc2OCCCC(=O)O)c1 [1 (k), 4-[2-(3-pentyl-α-methylcinnamoylamino)phenoxy]butanoic acid] |
| 6.49 | C/C(=C\C(=O)Nc1ccccc1OCCCC(=O)O)c1ccc(CCCCc2ccccc2)cc1 [1 (i), 4-[2-{4-(4-phenylbutyl)-β-methylcinnamoylamino)phenoxy] butanoic acid] |
| 6.37 | CCCCSc1ccc(/C(C)=C/C(=O)Nc2ccccc2OCCCC(=O)O)cc1 [1 (f), 4-[2-(4-butylthio-β-methylcinnamoylamino)phenoxy]butanoic acid] |
| 6.60 | C/C(=C\C(=O)Nc1ccccc1OCCCC(=O)O)c1ccc(Oc2ccccc2)cc1 [1 (j), 4-[2-(4-phenoxy-β-methylcinnamoylamino)phenoxy]butanoic acid] |
| 6.47 | CCCC(C)Cc1ccc(/C(C)=C/C(=O)Nc2ccccc2OCCCC(=O)O)cc1 (stereo not drawn) [1 (d), 4-[2-{4-(2-methylpentyl)-β-methylcinnamoylamino}phenoxy] butanoic acid] |
| 6.52 | CCC(CC)Cc1ccc(/C(C)=C/C(=O)Nc2ccccc2OCCCC(=O)O)cc1 [1 (c), 4-[2-{4-(2-ethylbutyl)-β-methylcinnamoylamino}phenoxy]butanoic acid] |
| 6.55 | CCCCCOc1ccc(/C(C)=C/C(=O)Nc2ccccc2OCCCC(=O)O)c(F)c1 [1 (e), 4-[2-(2-fluoro-4-pentyloxy-β-methylcinnamoylamino)phenoxy]butanoic acid] |
| 6.96 | C/C(=C\C(=O)Nc1ccccc1OCCCC(=O)O)c1ccc(CC2CCC2)cc1 [1 (g), 4-[2-(4-cyclobutylmethyl-β-methylcinnamoylamino)phenoxy] butanoic acid] |
| 6.55 | C/C(=C\C(=O)Nc1ccccc1OCCCC(=O)O)c1ccc(CC2CCCCC2)cc1 [1 (h), 4-[2-(4-cyclohexylmethyl-β-methylcinnamoylamino)phenoxy] butanoic acid] |
| 6.70 | CCCCCc1ccc(/C(C)=C/C(=O)Nc2ccccc2OCCCC(=O)O)cc1 [Example 1, 4-[2-(4-pentyl-β-methylcinnamoylamino)phenoxy]butanoic acid] |
| 6.80 | CCCCCc1cccc(/C(C)=C/C(=O)Nc2ccccc2OCCCC(=O)O)c1 [1 (a), 4-[2-(3-pentyl-β-methylcinnamoylamino)phenoxy]butanoic acid] |
